According to patent US5461034A, “Osteogenic growth polypeptides identified from regenerating bone marrow” (Yissum Research Development Company of the Hebrew …, priority 1993, dated 1995):

Tested on: ROS 17/2 cells
Assay: Anti-PDGF antibody neutralization in ROS 17/2 cells
Assay type: cell-based, rat
Details: intermediate doses of HBMCM preparations
Method: Anti-PDGF antibody neutralization experiments were carried out with polyclonal antiserum prepared in rabbits against PDGF. PDGF or HBMCM-derived preparations were added to ROS 17/2 cells in the presence or absence of antibody and examined for effects on [^3 H]TdR incorporation.

In the case of PDGF, the “effect of polyclonal anti-PDGF antibodies on mitogenic effect” value is reported as “inhibited PDGF-stimulated replication”.
